{
  "source": "patent US12582616B2",
  "about": "“Molecular targets for modulation of dissociative and associative states” (The Board of Trustees of the Leland Stanford Junior …, priority 2020, dated 2026)",
  "key": {"mice [1]": {"system": "mice", "experiment": "Open field test", "assay_type": "in vivo, mouse", "settings": "5 min session, compared with saline", "text": "Open Field Test: Mice were placed in an evenly illuminated 50 cm×50 cm open field test box. Mouse position was captured using a webcam and Viewer software (Biobserve)."}, "mice [2]": {"system": "mice", "experiment": "Hot plate test", "settings": "for dissociation-like behavior (sensory-detection vs affective responses), hot plate: other drug classes", "protocol": "Hot Plate Test: Mice were placed on the hot plate (Bioseb), which was set to 55° C. and surrounded by a clear circular perimeter. Mouse activity was recorded using two cameras from different angles. The experiment ended when the mouse jumped to escape or 90 seconds had elapsed. Care was taken to clean and dry the hot plate apparatus between animals. For optogenetic experiments, mice were connected to patch cords and then returned to a holding cage. Illumination began 30 seconds before mice were placed on the hot plate."}, "[3]": {"system": "retrosplenial cortex (RSP)", "experiment": "Widefield imaging of cortical activity in GCaMP6s mice", "settings": "i.p. injection, ketamine 50 mg/kg", "quoted_text": "We recorded multiregional neuronal activity by leveraging widefield microscopy, a cleared skull preparation, and atlas registration in GCaMP6s-expressing mice (FIGS. 1A-1C)^6,8,15.\nAs described^8, mice were anesthetized with isoflurane, the scalp was removed, the skull cleaned and dried, and a custom head-plate was cemented to contacts over the cerebellum and in front of the olfactory bulb. The skull was then covered in a thin layer of cyanoacrylate glue (Apollo 2000, Cyberbond), clear dental acrylic (Ortho-Jet, Lang Dental), and clear nail polish (Electron Microscopy Services). […] (0.1 mg/kg) was injected subcutaneously for pain management. […] Imaging was performed on a custom-built fluorescence microscope designed for high light collection efficiency and large field of view. […] Alternating 410 nm and 488 nm illumination for non-Ca^2+ dependent artifact removal was controlled using a microcontroller (Arduino) slaved to the frame output trigger of the camera.\nAnalysis was performed using custom MATLAB (MathWorks) scripts. Widefield imaging videos were registered to a 2D top-projection atlas generated from the annotated Allen Brain Atlas volume, version CCFv2, in MATLAB (MathWorks), using an affine transformation computed from four manually selected control points. Each video was DF/F normalized, using the median for each pixel over the entire time series as F. The 410 nm channel was then temporally smoothed using a moving average (width=400 ms). The smoothed 410 nm DF/F signal for each pixel was regressed onto the 488 nm DF/F signal for the corresponding pixel, and the regression coefficients were used to scale the 410 nm channel to the 488 nm channel. This scaled 410 nm DF/F signal was then subtracted from the 488 nm DF/F signal to produce a normalized signal for each pixel. For quantification, activity traces were extracted from points centered in five cortical regions (visual, somatosensory, parietal, motor, retrosplenial) on the left hemisphere of the brain. The video data was Gaussian smoothed spatially (radius=2 pixels).\nEach trace (corresponding to either a fiber photometry signal, a cellular two-photon signal, a widefield regional centroid, a widefield pixel, an sEEG trace, or a smoothed spike rate Neuropixels trace) was z-scored, and the power spectral density (PSD) was then estimated using Welch's method (pwelch( ) in Matlab), with a window size of 10*fs (15*fs for human sEEG) where fs is the sampling rate of the signal. The average band power within a specified band (i.e. 1-3 Hz) was then computed by integrating the PSD estimate (bandpower in Matlab). […] Unless otherwise indicated, the PSD was computed across the time window from minutes 10 to 11 post-injection."}, "mice [4]": {"system": "mice", "experiment": "Tail suspension test", "assay_type": "in vivo, mouse", "settings": "PCP 5 mg/kg", "description": "Tail Suspension Test: Mouse activity was recorded using a 60 Hz web camera. Struggling activity was quantified for minutes 2-10. […] Illumination began 30 seconds before tails were secured with tape and suspended from the beam. Mice were excluded if they climbed on their own tails."}},
  "note": "“Also recorded” adds a separate entry of the source.",
  "data": [
    {"compound": "CN1C(=O)CN=C(c2ccccc2)c2cc(Cl)ccc21", "note": "[diazepam]", "values": [
      {"measurement": "open-field locomotion velocity", "setting": "mice [1]", "value": "decreased velocity"},
      {"measurement": "dissociation-like behavior (sensory-detection vs affective responses), hot plate", "setting": "mice [2]", "value": "did not recapitulate dissociative-like behavior"},
      {"measurement": "1-3 Hz oscillation localized to retrosplenial cortex (RSP), widefield imaging", "setting": "[3]", "value": "Neither the GABAergic sedative diazepam nor the centrally-acting opioid-analgesic buprenorphine elicited the rhythm"}
    ]},
    {"compound": "c1ccc(C2(N3CCCCC3)CCCCC2)cc1", "note": "[PCP, phencyclidine]", "values": [
      {"measurement": "longer-timescale escape and social behaviors", "setting": "mice [4]", "value": "inhibited longer-timescale escape and social behaviors"},
      {"measurement": "open-field locomotion velocity", "setting": "mice [1]", "value": "locomotion velocity was unchanged"},
      {"measurement": "dissociation-like behavior (sensory-detection vs affective responses), hot plate", "setting": "mice [2]", "value": "recapitulated ketamine's behavioral disconnection between sensory-detection and affective responses"},
      {"measurement": "1-3 Hz oscillation localized to retrosplenial cortex (RSP), widefield imaging", "setting": "[3]", "value": "induced the RSP-localized oscillation"}
    ]},
    {"compound": "Cc1cccc([C@H](C)c2cnc[nH]2)c1C", "note": "[dexmedetomidine]", "values": [
      {"measurement": "1-3 Hz oscillation localized to retrosplenial cortex (RSP), widefield imaging", "setting": "[3]", "value": "elicited waves of cortical activity without RSP restriction"}
    ]},
    {"compound": "C[C@]12N[C@H](Cc3ccccc31)c1ccccc12", "note": "[MK-801]", "values": [
      {"measurement": "1-3 Hz oscillation localized to retrosplenial cortex (RSP), widefield imaging", "setting": "[3]", "value": "induced the RSP-localized oscillation"}
    ]},
    {"compound": "CC12CC3CC(C)(C1)CC(N)(C3)C2", "note": "[memantine]", "values": [
      {"measurement": "1-3 Hz oscillation localized to retrosplenial cortex (RSP), widefield imaging", "setting": "[3]", "value": "did not elicit oscillation"}
    ]},
    {"compound": "(+)-Lysergic acid diethylamide (+)-tartrate (2:1) [LSD]", "values": [
      {"measurement": "open-field locomotion velocity", "setting": "mice [1]", "value": "reducing locomotion in the stimulus-poor open-field; also recorded: decreased velocity"},
      {"measurement": "responsivity to salient stimuli (time-to-jump, rearing/socialization)", "setting": "mice [2]; LSD 0.3 mg/kg", "value": "tended to increase responsivity to salient stimuli"},
      {"measurement": "dissociation-like behavior (sensory-detection vs affective responses), hot plate", "setting": "mice [2]", "value": "disrupted neither sensory-detection nor affective responses"},
      {"measurement": "1-3 Hz oscillation localized to retrosplenial cortex (RSP), widefield imaging", "setting": "[3]", "value": "did not elicit oscillation"}
    ]},
    {"compound": "CC(C)c1cccc(C(C)C)c1O", "note": "[propofol]", "values": [
      {"measurement": "1-3 Hz oscillation localized to retrosplenial cortex (RSP), widefield imaging", "setting": "[3]", "value": "elicited waves of cortical activity without RSP restriction"}
    ]}
  ]
}
